{"source": "ChEMBL document CHEMBL5465560", "about": "“Selectivity Literature for EUbOPEN Chemogenomic Library” (2024)", "key": {"[1]": {"molecular_target": "Calcium/calmodulin-dependent protein kinase type 1D (Homo sapiens) (UniProt Q8IU85)", "sequence (Q8IU85 whole entry, looked up)": "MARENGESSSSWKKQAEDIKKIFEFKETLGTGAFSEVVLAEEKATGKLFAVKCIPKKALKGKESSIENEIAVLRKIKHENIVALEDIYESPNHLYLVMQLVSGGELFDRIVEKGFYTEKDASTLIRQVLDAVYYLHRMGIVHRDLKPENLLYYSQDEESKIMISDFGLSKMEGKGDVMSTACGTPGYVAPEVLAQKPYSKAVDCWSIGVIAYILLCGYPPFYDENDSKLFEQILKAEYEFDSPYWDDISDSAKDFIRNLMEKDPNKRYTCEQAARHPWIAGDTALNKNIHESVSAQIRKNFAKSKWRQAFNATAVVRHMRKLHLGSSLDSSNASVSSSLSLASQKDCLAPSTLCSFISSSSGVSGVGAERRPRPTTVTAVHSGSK", "assay": "Selectivity interaction (KinomeScan (DiscoverX)) EUB0000666a CAMK1D", "details": "at 10 µM"}, "[2]": {"molecular_target": "Mitogen-activated protein kinase 9 (Homo sapiens, UniProt P45984)", "sequence (P45984 whole entry, looked up)": "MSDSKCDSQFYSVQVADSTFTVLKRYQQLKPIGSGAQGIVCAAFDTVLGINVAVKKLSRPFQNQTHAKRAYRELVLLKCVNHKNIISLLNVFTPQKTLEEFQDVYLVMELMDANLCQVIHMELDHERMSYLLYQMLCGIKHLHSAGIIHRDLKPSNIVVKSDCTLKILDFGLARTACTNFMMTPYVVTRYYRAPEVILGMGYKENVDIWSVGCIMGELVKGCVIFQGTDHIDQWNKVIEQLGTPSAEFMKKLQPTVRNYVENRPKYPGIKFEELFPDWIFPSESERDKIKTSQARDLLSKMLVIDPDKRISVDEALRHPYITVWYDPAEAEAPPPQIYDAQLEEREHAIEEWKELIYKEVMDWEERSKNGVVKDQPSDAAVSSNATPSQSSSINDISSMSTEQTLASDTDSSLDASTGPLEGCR", "details": "at 10 µM"}, "[3]": {"molecular_target": "T1, Serine/threonine-protein kinase Nek9 (Homo sapiens) (UniProt Q8TD19)", "T1 sequence (whole entry)": "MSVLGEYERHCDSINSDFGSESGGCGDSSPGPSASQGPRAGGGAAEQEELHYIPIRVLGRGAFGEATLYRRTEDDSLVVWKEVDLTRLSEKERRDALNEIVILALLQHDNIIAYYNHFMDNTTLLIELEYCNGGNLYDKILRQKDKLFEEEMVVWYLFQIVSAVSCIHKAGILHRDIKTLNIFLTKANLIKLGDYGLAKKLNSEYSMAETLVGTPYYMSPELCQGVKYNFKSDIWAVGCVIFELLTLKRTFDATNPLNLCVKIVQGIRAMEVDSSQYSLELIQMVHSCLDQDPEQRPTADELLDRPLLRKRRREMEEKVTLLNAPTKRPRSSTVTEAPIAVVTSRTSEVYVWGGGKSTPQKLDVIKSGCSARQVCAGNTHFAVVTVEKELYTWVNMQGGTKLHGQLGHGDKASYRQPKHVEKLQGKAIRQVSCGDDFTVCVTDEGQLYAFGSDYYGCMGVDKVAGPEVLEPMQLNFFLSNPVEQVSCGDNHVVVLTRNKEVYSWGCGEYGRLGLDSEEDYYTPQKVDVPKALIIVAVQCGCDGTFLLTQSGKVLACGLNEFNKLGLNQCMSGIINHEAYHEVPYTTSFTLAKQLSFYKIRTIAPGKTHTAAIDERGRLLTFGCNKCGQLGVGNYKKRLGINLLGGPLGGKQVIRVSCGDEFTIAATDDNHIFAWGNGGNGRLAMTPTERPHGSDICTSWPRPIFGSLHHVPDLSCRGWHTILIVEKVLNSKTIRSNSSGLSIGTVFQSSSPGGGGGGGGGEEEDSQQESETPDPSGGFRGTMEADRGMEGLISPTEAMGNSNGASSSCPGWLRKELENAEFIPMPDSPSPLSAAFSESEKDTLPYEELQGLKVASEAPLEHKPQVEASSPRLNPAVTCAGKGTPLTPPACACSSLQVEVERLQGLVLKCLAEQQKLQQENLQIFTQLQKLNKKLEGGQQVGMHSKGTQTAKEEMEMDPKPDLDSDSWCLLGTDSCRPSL", "assay": "Selectivity interaction (ActivX KiNativ screen (kinase selectivity in THP-1 cell lysates)) EUB0000639a NEK9", "format": "subcellular", "details": "lysate, at 5 µM"}, "[4]": {"molecular_target": "T2, Serine/threonine-protein kinase ICK (Homo sapiens) (UniProt Q9UPZ9)", "T2 sequence (whole entry)": "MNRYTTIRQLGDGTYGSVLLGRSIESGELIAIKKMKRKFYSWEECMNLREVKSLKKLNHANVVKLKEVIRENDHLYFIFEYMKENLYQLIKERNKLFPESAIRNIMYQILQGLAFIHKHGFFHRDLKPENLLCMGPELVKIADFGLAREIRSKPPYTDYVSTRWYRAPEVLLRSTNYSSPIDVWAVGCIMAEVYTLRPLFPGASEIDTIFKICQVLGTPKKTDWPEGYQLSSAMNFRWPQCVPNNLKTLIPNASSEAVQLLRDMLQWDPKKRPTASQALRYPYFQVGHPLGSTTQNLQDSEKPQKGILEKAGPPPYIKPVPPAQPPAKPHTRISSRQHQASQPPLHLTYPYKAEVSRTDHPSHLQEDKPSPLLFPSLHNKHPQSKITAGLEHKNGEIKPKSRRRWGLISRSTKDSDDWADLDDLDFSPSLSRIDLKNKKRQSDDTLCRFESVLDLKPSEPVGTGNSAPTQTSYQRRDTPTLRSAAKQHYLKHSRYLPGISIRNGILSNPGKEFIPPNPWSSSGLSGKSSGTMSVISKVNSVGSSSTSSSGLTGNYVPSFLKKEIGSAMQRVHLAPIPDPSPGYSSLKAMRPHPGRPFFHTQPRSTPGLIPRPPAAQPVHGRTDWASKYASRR", "assay": "Selectivity interaction (KinomeScan (DiscoverX)) EUB0001049a ICK", "details": "at 1 µM"}, "[5]": {"molecular_target": "Mitogen-activated protein kinase kinase kinase kinase 4 (Homo sapiens, UniProt O95819)", "sequence (O95819 2-1239 limits assumed)": "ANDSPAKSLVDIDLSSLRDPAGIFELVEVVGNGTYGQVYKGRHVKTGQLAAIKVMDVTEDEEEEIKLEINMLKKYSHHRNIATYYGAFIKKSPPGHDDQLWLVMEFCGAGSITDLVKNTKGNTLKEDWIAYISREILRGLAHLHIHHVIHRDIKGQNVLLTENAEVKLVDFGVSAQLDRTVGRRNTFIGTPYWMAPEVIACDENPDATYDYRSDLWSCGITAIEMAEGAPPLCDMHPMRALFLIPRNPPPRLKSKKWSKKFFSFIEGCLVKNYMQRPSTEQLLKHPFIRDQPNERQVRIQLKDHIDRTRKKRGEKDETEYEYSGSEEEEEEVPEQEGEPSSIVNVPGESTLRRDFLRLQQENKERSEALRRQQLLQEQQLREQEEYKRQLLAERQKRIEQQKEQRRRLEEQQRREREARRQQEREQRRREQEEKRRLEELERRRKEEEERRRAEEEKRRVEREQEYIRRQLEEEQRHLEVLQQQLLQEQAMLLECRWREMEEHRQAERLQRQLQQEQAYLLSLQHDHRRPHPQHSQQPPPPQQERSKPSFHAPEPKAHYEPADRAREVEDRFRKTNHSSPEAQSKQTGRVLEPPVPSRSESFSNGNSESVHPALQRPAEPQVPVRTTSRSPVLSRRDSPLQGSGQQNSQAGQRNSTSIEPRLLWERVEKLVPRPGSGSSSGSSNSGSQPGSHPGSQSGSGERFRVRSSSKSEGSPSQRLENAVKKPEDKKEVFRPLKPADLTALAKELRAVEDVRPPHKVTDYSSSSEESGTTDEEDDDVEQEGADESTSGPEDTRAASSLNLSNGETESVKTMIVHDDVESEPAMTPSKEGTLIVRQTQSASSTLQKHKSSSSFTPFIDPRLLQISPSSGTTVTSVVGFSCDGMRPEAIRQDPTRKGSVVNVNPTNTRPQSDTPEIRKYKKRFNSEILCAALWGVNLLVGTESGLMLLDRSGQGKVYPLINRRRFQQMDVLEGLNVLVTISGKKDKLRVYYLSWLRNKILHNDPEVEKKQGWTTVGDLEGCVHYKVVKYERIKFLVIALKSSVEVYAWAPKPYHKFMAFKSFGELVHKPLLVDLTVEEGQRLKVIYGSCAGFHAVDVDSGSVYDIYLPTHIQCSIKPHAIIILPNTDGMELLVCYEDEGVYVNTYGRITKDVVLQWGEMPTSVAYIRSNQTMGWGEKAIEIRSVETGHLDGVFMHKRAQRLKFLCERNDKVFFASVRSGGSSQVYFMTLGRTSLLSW", "assay": "Selectivity interaction (Ambit KINOMEscan and KiNATiv profiling in Jurkat cells) EUB0000090b MAP4K4", "format": "cell-based", "details": "at 1 µM"}, "[6]": {"molecular_target": "T3, Ephrin type-A receptor 1 (Homo sapiens) (UniProt P21709)", "T3 sequence (whole entry)": "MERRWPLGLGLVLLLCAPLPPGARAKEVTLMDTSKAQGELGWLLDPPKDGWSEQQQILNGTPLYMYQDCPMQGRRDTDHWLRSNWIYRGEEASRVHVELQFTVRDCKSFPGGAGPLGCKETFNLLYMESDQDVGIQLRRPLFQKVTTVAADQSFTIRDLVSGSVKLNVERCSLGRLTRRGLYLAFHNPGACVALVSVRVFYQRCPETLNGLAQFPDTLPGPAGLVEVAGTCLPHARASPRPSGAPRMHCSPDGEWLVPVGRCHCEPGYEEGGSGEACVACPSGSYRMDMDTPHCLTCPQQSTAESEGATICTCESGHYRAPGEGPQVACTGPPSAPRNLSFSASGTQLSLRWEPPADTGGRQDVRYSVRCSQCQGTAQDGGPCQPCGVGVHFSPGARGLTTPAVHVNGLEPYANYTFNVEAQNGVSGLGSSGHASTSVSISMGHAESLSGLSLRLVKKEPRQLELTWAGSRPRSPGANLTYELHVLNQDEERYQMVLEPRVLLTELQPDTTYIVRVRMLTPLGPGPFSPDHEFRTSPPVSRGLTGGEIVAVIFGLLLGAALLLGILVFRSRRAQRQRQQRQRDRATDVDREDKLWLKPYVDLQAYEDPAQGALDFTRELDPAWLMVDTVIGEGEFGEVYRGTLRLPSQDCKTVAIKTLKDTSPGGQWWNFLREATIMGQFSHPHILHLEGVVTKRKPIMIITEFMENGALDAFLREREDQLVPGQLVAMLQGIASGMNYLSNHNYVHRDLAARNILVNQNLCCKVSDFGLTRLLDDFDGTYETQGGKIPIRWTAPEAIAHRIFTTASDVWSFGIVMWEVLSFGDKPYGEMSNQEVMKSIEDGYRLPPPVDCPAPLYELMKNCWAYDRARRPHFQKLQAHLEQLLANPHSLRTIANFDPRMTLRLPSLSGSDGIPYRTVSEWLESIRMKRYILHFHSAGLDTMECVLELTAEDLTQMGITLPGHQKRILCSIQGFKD", "assay": "Selectivity interaction (KinomeScan (DiscoverX)) EUB0001079a EPHA1", "details": "at 1 µM"}, "[7]": {"molecular_target": "SRSF protein kinase 2 (Homo sapiens) (UniProt P78362)", "sequence (P78362 whole entry, looked up)": "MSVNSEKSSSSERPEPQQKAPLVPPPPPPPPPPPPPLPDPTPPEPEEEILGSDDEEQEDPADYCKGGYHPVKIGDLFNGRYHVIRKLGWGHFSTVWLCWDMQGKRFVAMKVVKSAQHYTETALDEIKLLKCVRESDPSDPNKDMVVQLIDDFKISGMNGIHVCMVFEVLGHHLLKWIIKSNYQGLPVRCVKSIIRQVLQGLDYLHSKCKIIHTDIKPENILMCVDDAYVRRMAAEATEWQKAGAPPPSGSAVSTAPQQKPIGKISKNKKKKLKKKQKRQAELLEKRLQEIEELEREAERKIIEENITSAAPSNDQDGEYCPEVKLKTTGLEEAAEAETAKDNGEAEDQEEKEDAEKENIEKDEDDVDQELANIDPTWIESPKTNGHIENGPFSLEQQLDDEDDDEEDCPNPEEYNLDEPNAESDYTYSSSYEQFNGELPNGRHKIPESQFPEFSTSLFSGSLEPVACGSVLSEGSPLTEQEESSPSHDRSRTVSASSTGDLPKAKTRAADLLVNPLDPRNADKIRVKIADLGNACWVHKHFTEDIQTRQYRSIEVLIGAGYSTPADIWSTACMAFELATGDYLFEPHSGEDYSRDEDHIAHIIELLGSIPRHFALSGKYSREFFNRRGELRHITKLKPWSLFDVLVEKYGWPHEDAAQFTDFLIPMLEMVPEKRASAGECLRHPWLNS", "assay": "Selectivity interaction (KinomeScan (DiscoverX)) EUB0000229b SRPK2", "details": "at 10 µM"}, "[8]": {"molecular_target": "Dual specificity mitogen-activated protein kinase kinase 1 (Homo sapiens, UniProt Q02750)", "sequence (Q02750 whole entry)": "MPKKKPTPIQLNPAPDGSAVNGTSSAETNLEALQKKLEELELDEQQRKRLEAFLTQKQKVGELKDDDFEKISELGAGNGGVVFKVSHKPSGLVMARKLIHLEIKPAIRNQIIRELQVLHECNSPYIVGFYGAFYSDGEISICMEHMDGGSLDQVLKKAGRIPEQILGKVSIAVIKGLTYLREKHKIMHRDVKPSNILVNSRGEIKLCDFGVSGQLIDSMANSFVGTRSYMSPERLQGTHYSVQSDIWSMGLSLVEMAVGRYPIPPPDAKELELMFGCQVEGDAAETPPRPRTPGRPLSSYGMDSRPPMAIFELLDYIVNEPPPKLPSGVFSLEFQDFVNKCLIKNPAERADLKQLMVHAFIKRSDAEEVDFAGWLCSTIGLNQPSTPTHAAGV", "assay": "Selectivity interaction (ActivX KiNativ screen (ex vivo kinase selectivity in human PBMCs)) EUB0001619a MAP2K1", "format": "cell-based", "details": "PBMC, at 1 µM"}}, "data": [{"compound": "O=C(NOC[C@H](O)CO)c1ccc(F)c(F)c1Nc1ccc(I)cc1F", "values": [{"measurement": "% of control", "setting": "[1]", "result": 89, "unit": "%"}]}, {"compound": "CCN(CC)CCCCNc1ncc2cc(-c3cc(OC)cc(OC)c3)c(NC(=O)NC(C)(C)C)nc2n1", "values": [{"measurement": "% of control", "setting": "[2]", "result": 100, "unit": "%"}]}, {"compound": "CC[C@@H]1[C@H](F)C(=O)N[C@@H]1COc1nccc2cc(C(N)=O)c(OC)cc12", "note": "[ZIMLOVISERTIB]", "values": [{"measurement": "% of inhibition", "setting": "[3]", "result": 8.8, "unit": "%"}]}, {"compound": "COc1cc(Nc2nc(C)cc(-c3cnn4nc(OC)ccc34)n2)cc(C(F)(F)F)c1", "values": [{"measurement": "% of control", "setting": "[4]", "result": 85, "unit": "%"}]}, {"compound": "CN(C)C/C=C/C(=O)Nc1ccc(C(=O)N2CCCC(Nc3ncc(Cl)c(-c4c[nH]c5ccccc45)n3)C2)cc1", "note": "(stereo not drawn)", "values": [{"measurement": "% of control", "setting": "[5]", "result": 78, "unit": "%"}]}, {"compound": "Nc1cnc(N2CCc3cc(S(=O)(=O)Nc4c(F)cc(Cl)cc4F)cc(N4CCCC4=O)c32)nc1", "note": "[TP-020n]", "values": [{"measurement": "% of control", "setting": "[6]", "result": 99, "unit": "%"}]}, {"compound": "COc1cc(N(C)c2ccnc3ccc(C(F)(F)F)cc23)cc(OC)c1OC", "values": [{"measurement": "% binding", "setting": "[7]", "result": 94, "unit": "%"}]}, {"compound": "N#Cc1cccc(-c2c[nH]c3ncnc(N4CCOCC4)c23)c1", "values": [{"measurement": "% of inhibition", "setting": "[8]", "result": 0, "unit": "%"}]}]}
